The test system of assay [1] is Mus musculus. The assay is described as follows: Effect on Motor activity in mouse following i.p. administration. It counts as functional. Particulars: ip.
Another assay concerns the target T1, Adenosine receptor A1 (Rattus norvegicus, UniProt P25099).
T1 sequence (P25099 whole entry): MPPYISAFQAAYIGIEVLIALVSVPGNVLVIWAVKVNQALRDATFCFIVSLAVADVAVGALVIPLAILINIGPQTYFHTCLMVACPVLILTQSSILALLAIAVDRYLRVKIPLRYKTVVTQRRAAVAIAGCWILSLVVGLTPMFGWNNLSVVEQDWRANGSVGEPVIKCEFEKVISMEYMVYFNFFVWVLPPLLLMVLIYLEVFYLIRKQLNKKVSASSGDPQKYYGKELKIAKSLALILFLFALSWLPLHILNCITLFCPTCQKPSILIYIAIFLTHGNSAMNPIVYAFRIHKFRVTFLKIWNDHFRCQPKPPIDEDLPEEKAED

Assay [2] concerns Mus musculus. The assay can be described thus: Effect on Ataxia in mouse following i.p. administration. Format: functional. The note with it: ip.
Assay [3] deals with Rattus norvegicus. The assay can be described thus: Effect on Ataxia(ATX) in rat was measured as ED50 by perorally administration of compound. Format: functional. The note with it: po.
Assay [4] is filed under the species Rattus norvegicus. The assay can be described thus: Effect on Sidman conditioned avoidance in rat. Format: functional.
In assay [5] the test system is Rattus norvegicus. The assay is described as follows: Effect on Motor activity(MA) in rat was measured as ED50 by perorally administration of compound. Format: functional. Particulars: po.
Another assay has as its target Adenosine A2 receptor (Rattus norvegicus, UniProt P29276+P30543).

Description for Adenosine A2 receptor: Binding affinity to A2 adenosine receptor in rat striatal membranes by [3H]NECA (1-(6-amino-9H-purin-9-yl)-1-deoxy-N-ethyl-beta-D-ribofuranuronamide) displacement.
Description for Adenosine receptor A1: Binding affinity to adenosine A1 receptor in rat whole brain membranes by [3H]N6-cyclohexyladenosine displacement.

What is called ED50 is the midpoint of the dose-response relation. Read a low ED50 as greater potency. For orientation: Ki means a measure of affinity in units of concentration, obtained from inhibition or displacement. Regarding `OC[C@H]1O[C@@H](n2cnc3c(NCCc4ccccc4)ncnc32)[C@H](O)[C@@H]1O`, the ED50 in the assay with Mus musculus [1] was 15 mg/kg; with Mus musculus [2] it was over 100 mg/kg. The compound also returned a Ki on Adenosine receptor A1 of 0.0127 µM.

With `OC[C@H]1O[C@@H](n2cnc3c(NCC(c4ccccc4)c4ccccc4)ncnc32)[C@H](O)[C@@H]1O`, the ED50 is 1.3 mg/kg with Mus musculus [1]; 145 mg/kg in the assay with Mus musculus [2]; 31 mg/kg in the assay on Rattus norvegicus [3]; 2.5 mg/kg in the assay filed under Rattus norvegicus [4]; 2.2 mg/kg in the assay with Rattus norvegicus [5]. For the same compound, the Ki at Adenosine receptor A1 came to 0.0068 µM; at Adenosine A2 receptor, 0.025 µM.

Regarding `OC[C@H]1O[C@@H](n2cnc3c(NCCCCc4ccccc4)ncnc32)[C@H](O)[C@@H]1O`, the ED50 in the assay with Mus musculus [1] was 32 mg/kg; with Mus musculus [2], over 100 mg/kg. Besides, the inhibition constant (Ki) worked out at 0.0159 µM at Adenosine receptor A1 and 1.23 µM at Adenosine A2 receptor.

As for `OC[C@H]1O[C@@H](n2cnc3c(NCCCc4ccccc4)ncnc32)[C@H](O)[C@@H]1O`, the 50% effective dose (ED50) with Mus musculus [1] was 19 mg/kg; with Mus musculus [2], over 100 mg/kg. Besides, the Ki at Adenosine receptor A1 came out at 0.023 µM; on Adenosine A2 receptor, 0.42 µM.

As to `OC[C@H]1OC(n2cnc3c(NCCCCC(c4ccccc4)c4ccccc4)ncnc32)[C@H](O)[C@@H]1O` (stereo partly specified), the figures for the ED50 in the assay with Mus musculus [1] and in the assay on Mus musculus [2] were 30 mg/kg and over 100 mg/kg, respectively. The values for the Ki at Adenosine receptor A1 and at Adenosine A2 receptor were 0.146 µM and 2.2 µM, respectively.

Turning to `CC(C)(CNc1ncnc2c1ncn2C1O[C@H](CO)[C@@H](O)[C@H]1O)c1ccccc1` (stereo partly specified), the ED50 is 6.7 mg/kg in the assay on Mus musculus [1] and 30 mg/kg in the assay on Mus musculus [2]. Moreover, the Ki is 0.0162 µM at Adenosine receptor A1 and 0.32 µM on Adenosine A2 receptor.

In the case of `OC[C@H]1OC(n2cnc3c(NCC(c4ccccc4)(c4ccccc4)c4ccccc4)ncnc32)[C@H](O)[C@@H]1O` (stereo partly specified), the ED50 in the assay with Mus musculus [1] was 80 mg/kg; in the assay on Mus musculus [2], over 100 mg/kg. Also, the values for the Ki on Adenosine receptor A1 and on Adenosine A2 receptor were 14.3 µM and 26 µM, respectively.

Take `OC[C@H]1OC(n2cnc3c(NC(c4ccccc4)c4ccccc4)ncnc32)[C@H](O)[C@@H]1O` (stereo partly specified): the ED50 in the assay on Mus musculus [1] is 80 mg/kg; in the assay with Mus musculus [2], over 100 mg/kg. Also, the Ki is 0.48 µM on Adenosine receptor A1 and 3.8 µM on Adenosine A2 receptor.

In the case of `OC[C@H]1OC(n2cnc3c(NCCC(c4ccccc4)c4ccccc4)ncnc32)[C@H](O)[C@@H]1O` (stereo partly specified), the values for the ED50 in the assay on Mus musculus [1] and in the assay on Mus musculus [2] were 33 mg/kg and over 100 mg/kg, respectively. Moreover, the Ki on Adenosine receptor A1 was found to be 0.079 µM; on Adenosine A2 receptor, 0.29 µM.

As for `CC(CNc1ncnc2c1ncn2C1O[C@H](CO)[C@@H](O)[C@H]1O)(c1ccccc1)c1ccccc1` (stereo partly specified), the ED50 in the assay with Mus musculus [1] was 7 mg/kg; in the assay with Mus musculus [2], over 100 mg/kg. Also, the Ki on Adenosine receptor A1 was determined as 0.037 µM; on Adenosine A2 receptor, 0.03 µM.

Regarding `OC[C@H]1OC(n2cnc3c(NCCCC(c4ccccc4)c4ccccc4)ncnc32)[C@H](O)[C@@H]1O` (stereo partly specified), the ED50 is 32 mg/kg in the assay with Mus musculus [1] and over 100 mg/kg with Mus musculus [2]. Moreover, the Ki was 0.29 µM on Adenosine receptor A1 and 4.7 µM on Adenosine A2 receptor.

Consider `CC(CNc1ncnc2c1ncn2[C@@H]1O[C@H](CO)[C@@H](O)[C@H]1O)c1ccccc1` (mixture of isomers), for which the ED50 in the assay with Mus musculus [1] was determined as 0.5 mg/kg; in the assay on Mus musculus [2] it was 7 mg/kg. The Ki on Adenosine receptor A1 was found to be 0.0024 µM; at Adenosine A2 receptor, 0.098 µM.

As for `C[C@@H](Cc1ccccc1)Nc1ncnc2c1ncn2[C@@H]1OC(CO)[C@@H](O)[C@H]1O` (single isomer, unassigned), the 50% effective dose (ED50) is 16 mg/kg in the assay with Mus musculus [1] and 75 mg/kg with Mus musculus [2].

Consider `C[C@H](Cc1ccccc1)Nc1ncnc2c1ncn2[C@@H]1O[C@H](CO)[C@@H](O)[C@H]1O` [(R)-PIA], for which the values for the ED50 with Mus musculus [1] and with Mus musculus [2] were 0.8 mg/kg and 2 mg/kg, respectively.

For `O=C(CCCN1CCC(O)(c2ccc(Cl)cc2)CC1)c1ccc(F)cc1` [HALOPERIDOL], the ED50 is 0.27 mg/kg in the assay with Mus musculus [1]; 12 mg/kg with Mus musculus [2]; over 1 mg/kg with Rattus norvegicus [3]; 0.3 mg/kg in the assay filed under Rattus norvegicus [4]; 0.24 mg/kg with Rattus norvegicus [5].

Consider `OC[C@H]1O[C@@H](n2cnc3c(NCc4ccccc4)ncnc32)[C@H](O)[C@@H]1O` [N6-BENZYLADENOSINE], for which the ED50 in the assay with Mus musculus [1] was 22 mg/kg; with Mus musculus [2] it was over 100 mg/kg. At Adenosine A2 receptor, the Ki was found to be 0.28 µM.

`OC[C@H]1O[C@@H](n2cnc3c(Nc4ccccc4)ncnc32)[C@H](O)[C@@H]1O` [N6-PHENYLADENOSINE]: the values for the ED50 in the assay with Mus musculus [1] and in the assay on Mus musculus [2] were 25 mg/kg and 30 mg/kg, respectively. Also, the Ki on Adenosine receptor A1 is 0.0046 µM; on Adenosine A2 receptor, 0.66 µM.

`CSc1ccc2c(c1)N(CCC1CCCCN1C)c1ccccc1S2` (stereo unspecified) [THIORIDAZINE]: the ED50 with Mus musculus [1] was 3.3 mg/kg; in the assay with Mus musculus [2], 13 mg/kg; in the assay on Rattus norvegicus [3], over 30 mg/kg; in the assay filed under Rattus norvegicus [4], 19.7 mg/kg; in the assay on Rattus norvegicus [5], 13.3 mg/kg.

The record behind these values is ChEMBL document CHEMBL1123600, “N6-(2,2-diphenylethyl)adenosine, a novel adenosine receptor agonist with antipsychotic-like activity” (J Med Chem, 1987).
